Test results: patent US7932262B2 (Novartis AG, priority 2006, dated 2011)

Legend:
PDK1 kinase = molecular target: T1, PDK1 kinase (Homo sapiens, UniProt O15530); experiment: PDK1 Kinase Alpha Screen Assay; format: biochemical; settings: read-out: PDK1 IC50
T1 sequence (O15530 1-556): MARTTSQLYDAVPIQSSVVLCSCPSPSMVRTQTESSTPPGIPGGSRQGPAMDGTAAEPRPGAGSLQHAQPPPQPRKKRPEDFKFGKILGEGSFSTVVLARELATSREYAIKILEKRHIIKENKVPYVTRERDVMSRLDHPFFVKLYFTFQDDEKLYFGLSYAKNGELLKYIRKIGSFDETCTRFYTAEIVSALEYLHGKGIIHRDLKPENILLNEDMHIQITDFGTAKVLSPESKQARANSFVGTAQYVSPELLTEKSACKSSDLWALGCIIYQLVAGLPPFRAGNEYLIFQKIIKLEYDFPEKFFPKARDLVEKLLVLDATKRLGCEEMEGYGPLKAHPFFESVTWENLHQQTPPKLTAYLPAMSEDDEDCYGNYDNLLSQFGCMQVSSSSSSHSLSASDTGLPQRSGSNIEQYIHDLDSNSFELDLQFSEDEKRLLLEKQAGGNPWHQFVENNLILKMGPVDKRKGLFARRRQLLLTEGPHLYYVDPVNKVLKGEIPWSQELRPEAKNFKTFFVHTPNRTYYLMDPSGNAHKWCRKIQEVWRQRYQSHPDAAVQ
Method in brief: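 Biotinylated PDK1-4 peptide (50 nM) phosphorylated by PDK1 with 10 uM ATP in pH 7.5 Tris/MgCl2/DTT buffer, 2.5% DMSO, for 3-18 hours. EDTA stop, then AlphaScreen detection with phospho-(Ser/Thr) PKA substrate antibody and protein A/streptavidin beads after overnight room-temperature development.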

A2780 cells = experiment: Cell Proliferation Assay (Cell Titer Glo), A2780; format: cell-based; settings: Homo sapiens, 72 h; A2780 cells, 3 days incubation; read-out: CPEC50 A2780
Description: IV. Cell Proliferation Assay Protocol:
A2780, PC-3, or PC3MM cells were seeded at 1000 cells/well in 100 μL/well (10.000 cells/mL) growth media in 96-well plates. Cells were allowed to adhere to the bottom of plates for 3-5 hours in a 37° C. 5% CO2 incubator. Compounds were dissolved in DMSO and then transferred to the cell plates. The cells were incubated with the compounds for 3 days in a 37° C. 5% CO2 incubator. The growth medium containing the compounds was then removed from the cells and fresh medium was added, followed by 100 μL of Cell Titer Glo assay reagent (Promega). This mixture was shaken for 1 minute and then incubated without shaking for 10 minutes. Activity determinations for the compounds were made by detection on a Trilux Instrument.

IC50 (PDK1 kinase) [µM]	EC50 (A2780 cells) [µM]	SMILES
< 5	5 to 10	O=S(=O)(NCCN1CCCC1)c1cccc(Nc2ncc3cccc(OC4CCNCC4)c3n2)c1 [Compound 15, 3-[8-(Piperidin-4-yl-oxy)-quinazolin-2-ylamino]-N-(2-pyrrolidin-1-yl-ethyl)-benzenesulfonamide]
< 5	< 5	O=S(=O)(NC1CC1)c1cccc(Nc2ncc3cccc(OC4CCNCC4)c3n2)c1 [Compound 16, N-Cyclopropyl-3-[8-(piperidin-4-yloxy)-quinazolin-2-ylamino]-benzenesulfonamide]
< 5	< 5	NS(=O)(=O)c1ccc(Nc2ncc3ccc(Br)c(OC4CCNCC4)c3n2)cc1 [Compound 17, 4-[7-Bromo-8-(piper-idin-4-yloxy)-quin-azolin-2-ylamino]-benzenesulfonamide]
< 5	5 to 10	NC(=O)c1ccc(-c2ccc3cnc(Nc4ccc(S(N)(=O)=O)cc4)nc3c2OC2CCNCC2)cc1 [Compound 19, 4-[8-(Piperidin-4-yl-oxy)-2-(4-sulfamoyl-phenylamino)-quinazolin-7-yl]-benzamide]
< 5	< 5	NS(=O)(=O)c1ccc(Nc2ncc3ccc(-c4ccncc4)c(OC4CCNCC4)c3n2)cc1 [Compound 20, 4-[8-(Piperidin-4-yl-oxy)-7-pyridin-4-yl-quinazolin-2-ylamino]-benzenesulfonamide]
< 5	5 to 10	Nc1ncc(-c2ccc3cnc(Nc4ccc(S(N)(=O)=O)cc4)nc3c2OC2CCNCC2)cn1 [Compound 22, 4-[7-(2-Amino-pyrimidin-5-yl)-8-(piperidin-4-yloxy)-quinazolin-2-ylamino]-benzenesulfonamide]
< 5	< 5	N#Cc1ccc2cnc(Nc3ccc(S(N)(=O)=O)cc3)nc2c1OC1CCNCC1 [Compound 29, 4-[7-Cyano-8-(piperidin-4-yloxy)-quinazolin-2-ylamino]-benzenesulfonamide]
< 5	< 5	NC(=O)c1ccc(Nc2ncc3cccc(OC4CCNCC4)c3n2)cc1 [Compound 30, 4-[8-(Piperidin-4-yloxy)-quinazolin-2-ylamino]-benzamide]
< 5	< 5	NS(=O)(=O)c1ccc(Nc2ncc3cccc(O[C@H]4CCNC4)c3n2)cc1 [Compound 32, 4-[8-((S)-Pyrrolidin-3-yloxy)-quinazolin-2-ylamino]-benzenesulfonamide]
< 5	< 5	CN1CC[C@H](Oc2cccc3cnc(Nc4ccc(S(N)(=O)=O)cc4)nc23)C1 [Compound 34, 4-[8-((S)-1-Methyl-pyrrolidin-3-yloxy)-quinazolin-2-ylamino]-benzenesulfonamide]
< 5	< 5	CN1CC[C@@H](Oc2cccc3cnc(Nc4ccc(S(N)(=O)=O)cc4)nc23)C1 [Compound 38, 4-[8-((R)-1-Methyl-pyrrolidin-3-yloxy)-quinazolin-2-ylamino]-benzenesulfonamide]
< 5	< 5	CN1CCCC(Oc2cccc3cnc(Nc4ccc(S(N)(=O)=O)cc4)nc23)C1 (centres unmarked) [Compound 39, 4-[8-(1-Methyl-piperidin-3-yloxy)-quinazolin-2-ylamino]-benzenesulfonamide]
< 5	< 5	CC(C)N1CC(Oc2cccc3cnc(Nc4ccc(S(N)(=O)=O)cc4)nc23)C1 [Compound 47, 4-[8-(1-Isopropyl-azetidin-3-yloxy)-quinazolin-2-ylamino]-benzenesulfonamide]
< 5	5 to 10	NS(=O)(=O)c1ccc(Nc2ncc3cccc(OC4CNC4)c3n2)cc1 [Compound 48, 4-[8-(Azetidin-3-yloxy)-quinazolin-2-ylamino]-benzenesulfonamide]
< 5	< 5	CC(C)CN1CC(Oc2cccc3cnc(Nc4ccc(S(N)(=O)=O)cc4)nc23)C1 [Compound 49, 4-[8-(1-Isobutyl-azetidin-3-yloxy)-quinazolin-2-ylamino]-benzenesulfonamide]
< 5	< 5	CCN1CC(Oc2cccc3cnc(Nc4ccc(S(N)(=O)=O)cc4)nc23)C1 [Compound 50, 4-[8-(1-Ethyl-azetidin-3-yloxy)-quinazolin-2-ylamino]-benzenesulfonamide]
< 5	5 to 10	NS(=O)(=O)c1ccc(Nc2ncc3ccc(-c4ccc5c(c4)CCNC5=O)c(OC4CCNCC4)c3n2)cc1 [Compound 64, 4-[7-(1-Oxo-1,2,3,4-tetrahydro-isoquinolin-6-yl)-8-(piperidin-4-yloxy)-quinazolin-2-ylamino]-benzenesulfonamide]
< 5	5 to 10	CC(=O)c1ccc(-c2cccc3cnc(Nc4ccc(S(N)(=O)=O)cc4)nc23)cc1 [Compound 88, 4-[8-(4-Acetyl-phenyl)-quinazolin-2-ylamino]-benzenesulfonamide]
< 5	< 5	NS(=O)(=O)c1ccc(Nc2ncc3cccc(-c4ccc(-c5ccn[nH]5)cc4)c3n2)cc1 [Compound 89, 4-{8-[4-(2H-Pyrazol-3-yl)-phenyl]-quinazolin-2-ylamino}-benzenesulfonamide]
< 5	< 5	NC(=O)c1cccc(-c2cccc3cnc(Nc4ccc(S(N)(=O)=O)cc4)nc23)c1 [Compound 90, 3-[2-(4-Sulfamoyl-phenylamino)-quinazolin-8-yl]-benzamide]
< 5	< 5	CS(=O)(=O)c1cccc(-c2cccc3cnc(Nc4ccc(S(N)(=O)=O)cc4)nc23)c1 [Compound 91, 4-[8-(3-Methanesulfonyl-phenyl)-quinazolin-2-ylamino]-benzenesulfonamide]
< 5	< 5	CS(=O)(=O)Nc1cccc(-c2cccc3cnc(Nc4ccc(S(N)(=O)=O)cc4)nc23)c1 [Compound 92, 4-[8-(3-Methanesulfonylamino-phenyl)-quinazolin-2-ylamino]-benzenesulfonamide]
< 5	< 5	CC(=O)Nc1cccc(-c2cccc3cnc(Nc4ccc(S(N)(=O)=O)cc4)nc23)c1 [Compound 93, N-{3-[2-(4-Sulfamoyl-phenylamino)-quinazolin-8-yl]-phenyl}-acetamide]
< 5	< 5	NS(=O)(=O)c1ccc(Nc2ncc3cccc(-c4ccc5c(c4)OCO5)c3n2)cc1 [Compound 95, 4-(8-Benzo[1,3]dioxol-5-yl-quinazolin-2-ylamino)-benzenesulfonamide]
< 5	< 5	NC(=O)c1ccc(-c2cccc3cnc(Nc4ccc(S(N)(=O)=O)cc4)nc23)cc1 [Compound 96, 4-[2-(4-Sulfamoyl-phenylamino)-quinazolin-8-yl]-benzamide]
< 5	< 5	NS(=O)(=O)c1ccc(Nc2ncc3cccc(-c4ccnc(F)c4)c3n2)cc1 [Compound 97, 4-[8-(2-Fluoro-pyridin-4-yl)-quinazolin-2-ylamino]-benzenesulfonamide]
< 5	5 to 10	NS(=O)(=O)c1ccc(Nc2ncc3cccc(-c4cccnc4)c3n2)cc1 [Compound 98, 4-(8-Pyridin-3-yl-quinazolin-2-ylamino)-benzenesulfonamide]

SMILES	IC50 (PDK1 kinase) [µM]	EC50 (A2780 cells) [µM]
NS(=O)(=O)c1ccc(Nc2ncc3cccc(OC4CN5CCC4CC5)c3n2)cc1 (centres unmarked) [Compound 33, 4-[8-(1-Aza-bicyclo[2.2.2]oct-3-yloxy)-quinazolin-2-ylamino]-benzenesulfonamide]	< 5	< 5
